Counter-ions that a name gives are not always drawn.
How the values were obtained:
[1] = target: SIRT1 (Homo sapiens (Human), UniProt Q96EB6); assay: SIRT1 inhibition assay (Fluor de Lys fluorescence-based assay kit); format: biochemical; conditions: human recombinant enzyme; for inhibition at 60 µM: 60 μM compound, read-out: SirT1 (% inhib at 60 μM)
Method: (§1) SIRT1 and SIRT2 Inhibition Assays
(§2) All compounds were tested for inhibition of SIRT1 and SIRT2 using human recombinant enzymes available in the Fluor de Lys fluorescence-based assay kit (BIOMOL, AK555, AK556). All other required reagents were provided in the kit which was stored at −78° C. Before use, small aliquots of each enzyme (2-3 μL) were prepared, snap frozen in liquid nitrogen and stored at −78° C. Fresh dilutions of compounds were prepared in DMSO and further diluted in assay buffer. NAD^+ (12.5 […] at 4 mM) and Fluor de Lys SIRT1 or SIRT2 (12.5 μL at 100 μM) in assay buffer were added to a white 96 well plate, followed by compound (10 μL) and lastly enzyme (15 μL, 0.07 U/μL or SIRT1 and 0.3 U/μL for SIRT2). After incubation for 1 h at 37° C. a developer solution (50 μL) was added to each reaction. The developer solution contained 38 μL buffer, 10 μL developer and 2 μL nicotinamide (50 mM) per reaction. The plate was then incubated for 45 min at rt and then read using a Spectra Max Gemini fluorimeter with an excitation wavelength of 355 nm and an emission wavelength of 460 nm. SigmaPlot software was used to generate fit curves for raw plots and the equation for each curve was used to calculate IC50 data.

[2] = target: SIRT2 (Homo sapiens (Human), UniProt Q8IXJ6); assay: SIRT2 inhibition assay (Fluor de Lys fluorescence-based assay kit); format: biochemical; conditions: human recombinant enzyme; for inhibition at 60 µM: 60 μM compound, read-out: SirT2 (% inhib at 60 μM)
Method: as §1, §2

[3] = test system: 3T3L1 cells; assay: Adipocyte differentiation assay (ORO red lipid staining); format: cell-based, mouse; conditions: 10 μM compound, 3T3L1 cells in the 8 media, in duplicate, versus controls with and without DMSO
Method: Adipocyte Differentiation Assay
3T3L1 cells (i.e. mouse fibroblasts that differentiate into adipocytes in so-called differentiation medium) were treated in a low glucose differentiation medium (as described by F Wang and Q Tong (Molecular Biology of the Cell, 20, 2009, 801-808) with either (i) a normal growth medium (DMEM), (ii) a low glucose differentiation medium containing ciglitazone, d-biotin, dexamethasone, IBMX, insulin and L-thyroxine, or a (iii) a low glucose differentiation medium as per (ii) but lacking one of the components (i.e 6 different media each comprising five components selected from ciglitazone, d-biotin, dexamethasone, IBMX, insulin and L-thyroxine). Cells were stained with ORO red to detect lipid.
The same differentiation assays with each of the 8 differentiation media were then repeated but with addition of DMSO solvent and also 10 μM of compound D3 (5-dimethylamino-pentanoic acid {4-[3-(3,5-dichloro-4-methoxy-benzoyl)-thioureido]-phenyl}-amide hydrochloride) in duplicate.

SIRT2, sequence (Q8IXJ6 whole entry): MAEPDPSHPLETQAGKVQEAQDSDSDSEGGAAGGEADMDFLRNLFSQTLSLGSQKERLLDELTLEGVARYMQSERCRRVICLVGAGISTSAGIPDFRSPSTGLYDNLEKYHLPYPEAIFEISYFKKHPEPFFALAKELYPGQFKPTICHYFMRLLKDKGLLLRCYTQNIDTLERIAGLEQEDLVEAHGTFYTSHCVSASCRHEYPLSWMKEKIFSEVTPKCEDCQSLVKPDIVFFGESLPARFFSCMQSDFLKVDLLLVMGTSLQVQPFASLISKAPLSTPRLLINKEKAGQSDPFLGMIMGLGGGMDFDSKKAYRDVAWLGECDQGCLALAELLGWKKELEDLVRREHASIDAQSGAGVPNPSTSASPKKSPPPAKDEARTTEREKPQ
SIRT1, sequence (Q96EB6 whole entry): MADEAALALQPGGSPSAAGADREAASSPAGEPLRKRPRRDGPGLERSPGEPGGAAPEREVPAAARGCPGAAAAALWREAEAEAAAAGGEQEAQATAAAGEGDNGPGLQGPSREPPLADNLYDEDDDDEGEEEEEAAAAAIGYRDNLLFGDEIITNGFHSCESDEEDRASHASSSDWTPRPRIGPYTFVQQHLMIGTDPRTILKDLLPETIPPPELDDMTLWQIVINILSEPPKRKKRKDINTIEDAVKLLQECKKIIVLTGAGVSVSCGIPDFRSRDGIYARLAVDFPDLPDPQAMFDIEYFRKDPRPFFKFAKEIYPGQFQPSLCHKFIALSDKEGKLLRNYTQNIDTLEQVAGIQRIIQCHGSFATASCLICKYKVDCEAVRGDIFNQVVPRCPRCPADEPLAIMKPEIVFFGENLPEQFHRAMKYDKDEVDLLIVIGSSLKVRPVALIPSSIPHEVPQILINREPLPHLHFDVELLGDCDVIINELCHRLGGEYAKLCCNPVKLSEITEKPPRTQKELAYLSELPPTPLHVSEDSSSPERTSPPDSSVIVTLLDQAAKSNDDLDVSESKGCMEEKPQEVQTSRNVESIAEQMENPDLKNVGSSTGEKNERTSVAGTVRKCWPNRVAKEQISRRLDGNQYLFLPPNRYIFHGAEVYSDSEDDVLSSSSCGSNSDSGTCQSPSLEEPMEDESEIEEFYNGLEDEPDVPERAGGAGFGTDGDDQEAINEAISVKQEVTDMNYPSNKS

Compound	inhibition at 60 µM [1]	IC50 [1]	inhibition at 60 µM [2]	IC50 [2]	oro red staining (adipogenesis) [3]
COc1c(Cl)cc(C(=O)NC(=S)Nc2ccc(NC(=O)CCCCN(C)C)cc2)cc1Cl.Cl [Compound D3, 5-Dimethylamino-pentanoic acid {4-[3-(3,5-dichloro-4-methoxy-benzoyl)-thioureido]-phenyl}-amide hydrochloride]	35%	62.5 ± 3.6 µM	80.3%	10.7 ± 1.6 µM	increases the oro red staining
CN(C)CCCCC(=O)Nc1ccc(NC(=S)NC(=O)c2ccccc2Cl)cc1 [Compound A2, 5-Dimethylamino-pentanoic acid {4-[3-(2-chloro-benzoyl)-thioureido]-phenyl}-amide hydrochloride]	29.3%	–	54.3%	–	–
COc1ccccc1C(=O)NC(=S)Nc1ccc(NC(=O)CCCCN(C)C)cc1 [Compound A3, 5-Dimethylamino-pentanoic acid {4-[3-(2-methoxy-benzoyl)-thioureido]-phenyl}-amide hydrochloride]	48.7%	–	66.8%	–	–
CN(C)CCCCC(=O)Nc1ccc(NC(=S)NC(=O)c2ccc(N(C)C)cc2)cc1 [Compound 332a, 5-Dimethylamino-pentanoic acid {4-[3-(4-dimethylamino-benzoyl)-thioureido]-phenyl}-amide hydrochloride]	55.7%	–	61.5%	–	–
Cc1ccc(C(=O)NC(=S)Nc2ccc(NC(=O)CCCCN(C)C)cc2)cc1C [Compound C4, 5-Dimethylamino-pentanoic acid {4-[3-(3,4-dimethyl-benzoyl)-thioureido]-phenyl}-amide hydrochloride]	27.5%	–	65.1%	–	–
